We go through 11 compounds from patent publication US9796719B2, “Compounds and pharmaceutical compositions thereof for the treatment of inflammatory disorders” (GALAPAGOS NV, priority 2013, dated 2017).

The target in experiment [1] is T1, hENPP2 (UniProtKB/SwissProt Sequence ref Q13822) (Homo sapiens (Human), UniProt Q13822). The experiment can be described thus: LPC hENPP2 assay (choline release, LPC as substrate). The class given is biochemical. An outline of the steps:
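Choline released from LPC by ENPP2 is quantified after stopping with stop-developer containing 0.6 U/mL choline oxidase, 0.6 U/mL peroxidase, 1.8 mM TOOS, 1.2 mM amino-antipyrine and 20 mM EGTA. Quinoneimine dye read at 555 nm after 30 min at room temperature.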

For experiment [2], the target named is T1, hENPP2. The experiment is described as follows: FS3 hENPP2 assay (fluorogenic substrate FS-3). The class given is biochemical. The settings on record: hENPP2, FS-3 as substrate. An outline of the steps: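 Compound dilutions (1/5 steps, top concentration as added 20 μM) were preincubated 30 min at room temperature with hENPP2 (0.4 or 0.64 μg/mL final) in pH 8.0 Tris buffer containing NaCl, KCl, MgCl2, CaCl2 and 0.1% fatty-acid-free BSA. FS-3 (0.75 μM as added) was then hydrolysed for 30 min at 30 °C, and fluorescence was read at 485/520 nm.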

As a reminder, the IC50 is the point on the concentration scale where inhibition reaches its midpoint. Read a high IC50 as weaker potency in that assay. With `CCc1nc2ccc(C3CCN(CC(=O)N(C)C)CC3)nn2c1N(C)c1nc(-c2ccc(F)cc2)cs1` [Cpd 202, 2-(4-(2-ethyl-3-((4-(4-fluorophenyl)thiazol-2-yl)(methyl)amino)imidazo[1,2-b]pyridazin-6-yl)piperidin-1-yl)-N,N-dimethylacetamide], the figures for the IC50 on hENPP2 [1] and at hENPP2 [2] were 500 to 1000 nM and 0.01 to 25 nM, respectively.
The like results for `CCc1nc2ccc(N3CCC(N4CCS(=O)(=O)CC4)C3)nn2c1N(C)c1nc(-c2ccc(F)cc2)cs1` (stereo not shown) [Cpd 150, {6-[3-(1,1-Dioxo-thiomorpholin-4-yl)-pyrrolidin-1-yl]-2-ethyl-imidazo[1,2-b]pyridazin-3-yl}-[4-(4-fluoro-phenyl)-thiazol-2-yl]-methyl-amine] were, in that order, over 1000 nM and 0.01 to 25 nM.
In the same order, the values of `CCc1nc2ccc(N3CCN(CC(=O)N4CCCC4CO)CC3)nn2c1N(C)c1nc(-c2ccc(F)cc2)cs1` (stereo not shown) [Cpd 29] are 100 to 500 nM and 0.01 to 25 nM.
In the same order, the values of `CN(c1nc(-c2ccc(F)cc2)cs1)c1c(CC#N)nc2ccc(C3=CCN(S(C)(=O)=O)CC3)nn12` [Compound 196, 2-(3-((4-(4-fluorophenyl)thiazol-2-yl)(methyl)amino)-6-(1-(methylsulfonyl)-1,2,3,6-tetrahydropyridin-4-yl)imidazo[1,2-b]pyridazin-2-yl)acetonitrile] are over 1000 nM and 0.01 to 25 nM.
With `CCc1nc2ccc(N3CCC(N4CCOCC4)C3)nn2c1N(C)c1nc(-c2ccc(F)cc2)cs1` (stereo not shown) [Cpd 147, N-(2-ethyl-6-(3-morpholino-pyrrolidin-1-yl)imidazo[1,2-b]pyridazin-3-yl)-4-(4-fluorophenyl)-N-methylthiazol-2-amine], the figures for the 50% inhibitory concentration (IC50) against hENPP2 [1] and on hENPP2 [2] were 100 to 500 nM and 0.01 to 25 nM, respectively.
Turning to `CCc1nc2ccc(N3CCN(CCC#N)CC3)nn2c1N(C)c1nc(-c2ccc(F)cc2)cs1` [Cpd 51], the IC50 was over 1000 nM against hENPP2 [1] and 0.01 to 25 nM on hENPP2 [2].
In the same order, the values of `CCc1nc2ccc(N3CC4CN(C(=O)OC(C)(C)C)CC4C3)nn2c1N(C)c1nc(-c2ccc(F)cc2)cs1` (stereo not shown) [Cpd 122, tert-butyl 5-(2-ethyl-3-((4-(4-fluorophenyl)thiazol-2-yl)(methyl)amino)imidazo[1,2-b]pyridazin-6-yl)hexahydro-pyrrolo[3,4-c] pyrrole-2(1H)-carboxylate] are over 1000 nM and 0.01 to 25 nM.
In the same order, the values of `CCc1nc2ccc(N3CCCC(O)C3)nn2c1N(C)c1nc(-c2ccc(F)cc2)cs1` (stereo not shown) [Cpd 91, 1-(2-ethyl-3-((4-(4-fluorophenyl)thiazol-2-yl)(methyl)amino)imidazo[1,2-b]pyridazin-6-yl)piperidin-3-ol] are over 1000 nM and 25 to 50 nM.
In the same order, the values of `CCc1nc2ccc(N3CCN(CCN4CCCC4=O)CC3)nn2c1N(C)c1nc(-c2ccc(F)cc2)cs1` [Cpd 46, 1-(2-(4-(2-ethyl-3-((4-(4-fluorophenyl)thiazol-2-yl)(methyl)amino)imidazo[1,2-b]pyridazin-6-yl)piperazin-1-yl)ethyl)pyrrolidin-2-one] are 100 to 500 nM and 0.01 to 25 nM.
In the case of `CCc1nc2ccc(N3CCN(CC(=O)N4CCOCC4)[C@H](CO)C3)nn2c1N(C)c1nc(-c2ccc(F)cc2)cs1` [Cpd 65, (S)-2-(4-(2-ethyl-3-((4-(4-fluorophenyl)thiazol-2-yl)(methyl)amino)imidazo[1,2-b]pyridazin-6-yl)-2-(hydroxymethyl)piperazin-1-yl)-1-morpholinoethanone], the IC50 lay within 100 to 500 nM on hENPP2 [1] and 0.01 to 25 nM on hENPP2 [2].
As for `CCc1nc2ccc(N3CCN(S(C)(=O)=O)[C@H](CO)C3)nn2c1N(C)c1nc(-c2ccc(F)cc2)cs1` [Cpd 67, (S)-(4-(2-ethyl-3-((4-(4-fluorophenyl)thiazol-2-yl)(methyl)amino)imidazo[1,2-b]pyridazin-6-yl)-1-(methylsulfonyl)piperazin-2-yl)methanol], the IC50 was in the range of 100 to 500 nM against hENPP2 [1] and 0.01 to 25 nM on hENPP2 [2].
